Calls of active or inactive are those of the source. How the calls were made is not given here.
Tested on: CCRIS mutagenicity, Ames/micronucleus/aberration tests
Experiment: CCRIS mutagenicity studies
[1] = Test System: AMES SALMONELLA TYPHIMURIUM, Strain/Indicator: TA98, Metabolic Activation: NONE, Method: STANDARD PLATE
[2] = Test System: AMES SALMONELLA TYPHIMURIUM, Strain/Indicator: TA100, Metabolic Activation: NONE, Method: STANDARD PLATE
[3] = Test System: AMES SALMONELLA TYPHIMURIUM, Strain/Indicator: TA100, Metabolic Activation: RAT, LIVER, S-9, AROCLOR 1254, Method: STANDARD PLATE

COc1cc2c(c(OC)c1OC)-c1ccc(OC)c(=O)cc1[C@@H](NC(C)=O)CC2
mutagenic call (End Point: IN VITRO CHROMOSOMAL ABERRATIONS, Test System: CHINESE HAMSTER OVARY CELLS, Metabolic Activation: NONE): active; positive (ploidy changes) | mutagenic call (End Point: IN VITRO CHROMOSOMAL ABERRATIONS, Test System: CHINESE HAMSTER OVARY CELLS, Metabolic Activation: RAT, LIVER, S-9, AROCLOR 1254): inactive; negative | mutagenic call (End Point: IN VITRO MICRONUCLEUS, Test System: CHL/IU CELLS, Metabolic Activation: NONE): active; positive | mutagenic call (End Point: IN VIVO MICRONUCLEUS, Test System: BLOOD ERYTHROCYTES, Species: MOUSE, Strain/Sex: CD-1/MALE, Route: ORAL): active; positive | mutagenic call (End Point: In vitro micronucleus, Test System: Mouse lymphoma L5178Y cells, Metabolic Activation: None): active; positive | mutagenic call (End Point: In vivo micronucleus, Test System: Micronucleated, binucleated and multinucleated hepatocytes, Species: Mouse, Strain/Sex: ddY/Male, Route: Intravenous): active; positive for binucleated and multinucleated cells when agent administered after | mutagenic call (Test System: AMES SALMONELLA TYPHIMURIUM, Strain/Indicator: TA98, Metabolic Activation: HAMSTER, LIVER, S-9, AROCLOR 1254, Method: STANDARD PLATE): inactive; negative | mutagenic call [1]: inactive; negative | mutagenic call (Test System: AMES SALMONELLA TYPHIMURIUM, Strain/Indicator: TA98, Metabolic Activation: RAT, LIVER, S-9, AROCLOR 1254, Method: STANDARD PLATE): inactive; negative | mutagenic call (Test System: AMES SALMONELLA TYPHIMURIUM, Strain/Indicator: TA100, Metabolic Activation: HAMSTER, LIVER, S-9, AROCLOR 1254, Method: STANDARD PLATE): inactive; negative | mutagenic call [2]: inactive; negative | mutagenic call [3]: inactive; negative | mutagenic call (Test System: AMES SALMONELLA TYPHIMURIUM, Strain/Indicator: TA1535, Metabolic Activation: HAMSTER, LIVER, S-9, AROCLOR 1254, Method: STANDARD PLATE): inactive; negative | mutagenic call (Test System: AMES SALMONELLA TYPHIMURIUM, Strain/Indicator: TA1535, Metabolic Activation: NONE, Method: STANDARD PLATE): inactive; negative | mutagenic call (Test System: AMES SALMONELLA TYPHIMURIUM, Strain/Indicator: TA1535, Metabolic Activation: RAT, LIVER, S-9, AROCLOR 1254, Method: STANDARD PLATE): inactive; negative | mutagenic call (Test System: AMES SALMONELLA TYPHIMURIUM, Strain/Indicator: TA1537, Metabolic Activation: HAMSTER, LIVER, S-9, AROCLOR 1254, Method: STANDARD PLATE): inactive; negative | mutagenic call (Test System: AMES SALMONELLA TYPHIMURIUM, Strain/Indicator: TA1537, Metabolic Activation: NONE, Method: STANDARD PLATE): inactive; negative | mutagenic call (Test System: AMES SALMONELLA TYPHIMURIUM, Strain/Indicator: TA1537, Metabolic Activation: RAT, LIVER, S-9, AROCLOR 1254, Method: STANDARD PLATE): inactive; negative | mutagenic call (Test System: AMES SALMONELLA TYPHIMURIUM, Strain/Indicator: TA1538, Metabolic Activation: HAMSTER, LIVER, S-9, AROCLOR 1254, Method: STANDARD PLATE): inactive; negative | mutagenic call (Test System: AMES SALMONELLA TYPHIMURIUM, Strain/Indicator: TA1538, Metabolic Activation: NONE, Method: STANDARD PLATE): inactive; negative | mutagenic call (Test System: AMES SALMONELLA TYPHIMURIUM, Strain/Indicator: TA1538, Metabolic Activation: RAT, LIVER, S-9, AROCLOR 1254, Method: STANDARD PLATE): inactive; negative | mutagenic call (Test System: MOUSE LYMPHOMA, Strain/Indicator: L5178Y (TK+/TK-), Metabolic Activation: NONE): active; positive | mutagenic call (Test System: MOUSE LYMPHOMA, Strain/Indicator: L5178Y (TK+/TK-), Metabolic Activation: NONE, Method: SUSPENSION/PLATE): inactive; negative. reevaluation of results: negative | mutagenic call (Test System: MOUSE LYMPHOMA, Strain/Indicator: L5178Y (TK+/TK-), Metabolic Activation: RAT, LIVER, S-9, AROCLOR 1254, Method: SUSPENSION/PLATE): inactive; negative. reevaluation of results: negative | mutagenic call (Test System: MOUSE LYMPHOMA, Strain/Indicator: L5178Y(TK+/TK-), Metabolic Activation: NONE, Method: MICROWELL): active; positive | mutagenic call (Test System: Mouse lymphoma, Strain/Indicator: L5178Y (tk+/tk-)/Trifluorothymidine, Metabolic Activation: None, Method: Microtiter): inactive; negative

Cc1ccc2ccccc2n1
mutagenic call [3]: active; positive | mutagenic call (Test System: AMES SALMONELLA TYPHIMURIUM, Strain/Indicator: TA100, Metabolic Activation: RAT, LIVER, S-9, PHENOBARBITAL AND 5,6-BENZOFLAVONE, Method: PREINCUBATION): active; positive | mutagenic call (Test System: AMES SALMONELLA TYPHIMURIUM, Strain/Indicator: TA100, Metabolic Activation: RAT, LIVER, S-9, PHENOBARBITAL AND 5,6-NAPHTHOFLAVONE, Method: PREINCUBATION): active; positive | mutagenic call (Test System: AMES SALMONELLA TYPHIMURIUM, Strain/Indicator: TA100, Metabolic Activation: RAT, LIVER, S-9, Method: PREINCUBATION): inactive; negative | mutagenic call (Test System: UDS RODENT HEPATOCYTES, Strain/Indicator: THY INCORP (NON-S-PHASE), Metabolic Activation: NONE, Method: AUTORADIOGRAPHY): inactive; negative

Cc1ncc([N+](=O)[O-])n1CC(O)CCl (configuration not stated)
mutagenic call (End Point: IN VITRO CHROMOSOMAL ABERRATIONS, Test System: HUMAN LYMPHOCYTES, Metabolic Activation: NONE): active; positive (structural changes)

CC(C)COC(=O)CCCCC(=O)OCC(C)C
mutagenic call (Test System: AMES SALMONELLA TYPHIMURIUM, Strain/Indicator: TA97, Metabolic Activation: NONE, Method: STANDARD PLATE): inactive; negative | mutagenic call (Test System: AMES SALMONELLA TYPHIMURIUM, Strain/Indicator: TA97, Metabolic Activation: S-9, Method: STANDARD PLATE): inactive; negative | mutagenic call [1]: inactive; negative | mutagenic call (Test System: AMES SALMONELLA TYPHIMURIUM, Strain/Indicator: TA98, Metabolic Activation: S-9, Method: STANDARD PLATE): inactive; negative | mutagenic call [2]: inactive; negative | mutagenic call (Test System: AMES SALMONELLA TYPHIMURIUM, Strain/Indicator: TA100, Metabolic Activation: S-9, Method: STANDARD PLATE): inactive; negative | mutagenic call (Test System: AMES SALMONELLA TYPHIMURIUM, Strain/Indicator: TA102, Metabolic Activation: NONE, Method: STANDARD PLATE): inactive; negative | mutagenic call (Test System: AMES SALMONELLA TYPHIMURIUM, Strain/Indicator: TA102, Metabolic Activation: S-9, Method: STANDARD PLATE): inactive; negative | mutagenic call (Test System: E.COLI, Strain/Indicator: WP2 (PKM101), Metabolic Activation: NONE, Method: STANDARD PLATE): inactive; negative | mutagenic call (Test System: E.COLI, Strain/Indicator: WP2 (PKM101), Metabolic Activation: S-9, Method: STANDARD PLATE): inactive; negative

From PubChem BioAssay AID1259407 (Chemical Carcinogenesis Research Information System (CCRIS), 2018)
